Consider four compounds from ChEMBL document CHEMBL2424533, “Design and regioselective synthesis of trifluoromethylquinolone derivatives as potent antimicrobial agents” (2013).

In one experiment the test system is Penicillium chrysogenum. As to the kind of experiment: Antimicrobial activity against Penicillium chrysogenum MTCC 6795 at 50 to 100 ug/mL after 48 hrs by well diffusion method. The format is functional, organism-based. In general terms: In agar diffusion tests the substance spreads into inoculated agar from a disc or well.
The test system of experiment [1] is Mycolicibacterium smegmatis. As to the kind of experiment: Antimicrobial activity against Mycobacterium smegmatis MTCC 943 at 100 ug/mL after 12 hrs by well diffusion method. The note with it: for zone of inhibition at 100 µg/mL: MTCC 943, 12 h, read-out: DIZ. The experiment is classed as functional.
For experiment [2], the system named is Candida albicans. Kind of experiment: Antimicrobial activity against Candida albicans MTCC 183 at 50 ug/mL after 12 hrs by well diffusion method. The format is functional.
In experiment [3] the test system is Pseudomonas aeruginosa. As to the kind of experiment: Antimicrobial activity against Pseudomonas aeruginosa MTCC 4673 at 50 ug/mL after 12 hrs by well diffusion method. The format is functional. The conditions noted are these: MTCC 4673, 12 h, read-out: DIZ.
The test system of experiment [4] is Mycolicibacterium smegmatis. As to the kind of experiment: Antimicrobial activity against Mycobacterium smegmatis MTCC 943 at 50 ug/mL after 12 hrs by well diffusion method. The format is functional. The note with it: for zone of inhibition at 50 µg/mL: MTCC 943, 12 h, read-out: DIZ.
Experiment [5] relates to Pseudomonas aeruginosa. As to the kind of experiment: Antimicrobial activity against Pseudomonas aeruginosa MTCC 4673 after 12 hrs by well diffusion method. The format is functional. The conditions noted are these: MTCC 4673, 12 h.
The subject of experiment [6] is Staphylococcus aureus. The conditions noted are these: MTCC 3160, 50 ug/mL.
Description: Antimicrobial activity against Staphylococcus aureus MTCC 3160 at 50 ug/mL after 12 hrs by well diffusion method
The test system of experiment [7] is Mycolicibacterium smegmatis. As to the kind of experiment: Antimicrobial activity against Mycobacterium smegmatis MTCC 943 after 12 hrs by well diffusion method. The experiment is classed as functional. The conditions noted are these: MTCC 943, 12 h.
The subject of experiment [8] is Salmonella typhimurium. As to the kind of experiment: Antimicrobial activity against Salmonella typhimurium MTCC 3732 after 12 hrs by well diffusion method. The experiment is classed as functional, Salmonella enterica subsp. enterica serovar Typhimurium. The note with it: Salmonella enterica, MTCC 3732, 12 h.
The subject of experiment [9] is Salmonella typhimurium. As to the kind of experiment: Antimicrobial activity against Salmonella typhimurium MTCC 3732 at 50 ug/mL after 12 hrs by well diffusion method. The experiment is classed as functional. The note with it: for diameter of the inhibition zone (DIZ): Salmonella enterica subsp. enterica serovar Typhimurium; for zone of inhibition at 50 µg/mL: Salmonella enterica, MTCC 3732, 12 h, read-out: DIZ.

In experiment [10] the test system is Pseudomonas aeruginosa. Kind of experiment: Antimicrobial activity against Pseudomonas aeruginosa MTCC 4673 at 100 ug/mL after 12 hrs by well diffusion method. The format is functional. The note with it: MTCC 4673, 12 h, read-out: DIZ.
Experiment [11] deals with Candida albicans. As to the kind of experiment: Antimicrobial activity against Candida albicans MTCC 183 after 12 hrs by well diffusion method. The format is functional. The note with it: MTCC 183, 12 h.
Experiment [12] deals with Staphylococcus aureus. Kind of experiment: Antimicrobial activity against Staphylococcus aureus MTCC 3160 at 100 ug/mL after 12 hrs by well diffusion method. The format is functional. The conditions noted are these: for zone of inhibition at 100 µg/mL: MTCC 3160, 12 h, read-out: DIZ.
For experiment [13], the system named is Salmonella typhimurium. Kind of experiment: Antimicrobial activity against Salmonella typhimurium MTCC 3732 at 100 ug/mL after 12 hrs by well diffusion method. The format is functional. The note with it: for diameter of the inhibition zone (DIZ): Salmonella enterica subsp. enterica serovar Typhimurium; for zone of inhibition at 100 µg/mL: Salmonella enterica, MTCC 3732, 12 h, read-out: DIZ.

Experiment [14] has as its system Staphylococcus aureus. As to the kind of experiment: Antimicrobial activity against Staphylococcus aureus MTCC 3160 after 12 hrs by well diffusion method. The experiment is classed as functional. The conditions noted are these: MTCC 3160, 12 h.
In experiment [15] the test system is Candida albicans. As to the kind of experiment: Antimicrobial activity against Candida albicans MTCC 183 at 100 ug/mL after 12 hrs by well diffusion method. The experiment is classed as functional.

≈ marks a conversion by molar mass, not a printed value. Calls of active or inactive are those of the source.

In general, MIC refers to the smallest concentration in the dilution series that meets the test's criterion for growth inhibition. On to `N#Cc1ccc(Cn2cc(C(=O)NN)c(=O)c3cccc(C(F)(F)F)c32)cc1`, for which the outcome in the experiment with Penicillium chrysogenum was inactive. Also, the zone of inhibition at 100 µg/mL (in experiment [1]; in the experiment with Pseudomonas aeruginosa [10]; with Staphylococcus aureus [12]) was 8 mm each time. For the same compound, the “diameter of the inhibition zone (DIZ)” value in the experiment with Candida albicans [2], in the experiment with Salmonella typhimurium [9], with Salmonella typhimurium [13] and with Candida albicans [15] was “inactive” each time. For the same compound, the values for the zone of inhibition at 50 µg/mL (in the experiment with Pseudomonas aeruginosa [3]; in experiment [4]) were 8 mm and 7.3 mm, respectively. Also, the MIC is 25 µg/mL (≈ 64.7 µM) against Pseudomonas aeruginosa [5]; 50 µg/mL (≈ 129 µM) in [7]; above 100 µg/mL against Salmonella typhimurium [8]; above 100 µg/mL in the experiment with Candida albicans [11]; 100 µg/mL (≈ 259 µM) in the experiment with Staphylococcus aureus [14]. Also, in the experiment on Staphylococcus aureus [6], the DIZ entry is “inactive”.

With `NNC(=O)c1cn(Cc2ccc(Cl)cc2Cl)c2c(C(F)(F)F)cccc2c1=O`, the result in the experiment with Penicillium chrysogenum was inactive. Further, the “diameter of the inhibition zone (DIZ)” value (in experiment [1]; with Candida albicans [2]; in experiment [4]; with Candida albicans [15]) was “inactive” throughout. The values for the zone of inhibition at 50 µg/mL in the experiment with Pseudomonas aeruginosa [3] and in the experiment with Salmonella typhimurium [9] were 8 mm and 11.3 mm, respectively. Further, the minimal inhibitory concentration (MIC) with Pseudomonas aeruginosa [5] is 25 µg/mL (≈ 58.1 µM); in [7], above 100 µg/mL; with Salmonella typhimurium [8], 25 µg/mL (≈ 58.1 µM); against Candida albicans [11] it was above 100 µg/mL; with Staphylococcus aureus [14] it was 100 µg/mL (≈ 232 µM). Also, the DIZ entry in the experiment with Staphylococcus aureus [6] was “inactive”. The zone of inhibition at 100 µg/mL in the experiment with Pseudomonas aeruginosa [10] is 8 mm; in the experiment with Staphylococcus aureus [12], 9 mm; in the experiment with Salmonella typhimurium [13] it was 12 mm.

For `C#CCn1cc(C(=O)NN)c(=O)c2ccc(C(F)(F)F)cc21`, the outcome in the experiment with Penicillium chrysogenum was inactive. Besides, the zone of inhibition at 100 µg/mL (in [1]; in the experiment with Pseudomonas aeruginosa [10]; in the experiment on Salmonella typhimurium [13]) was 8 mm each time. The “diameter of the inhibition zone (DIZ)” value in the experiment on Candida albicans [2], in the experiment on Staphylococcus aureus [12] and in the experiment on Candida albicans [15] was “inactive” in each case. Besides, the values for the zone of inhibition at 50 µg/mL (with Pseudomonas aeruginosa [3]; in experiment [4]; in the experiment on Salmonella typhimurium [9]) were 8 mm, 8 mm and 7.6 mm, respectively. Moreover, the MIC against Pseudomonas aeruginosa [5] was 25 µg/mL (≈ 80.8 µM); in [7], 25 µg/mL (≈ 80.8 µM); in the experiment with Salmonella typhimurium [8] it was 25 µg/mL (≈ 80.8 µM); in the experiment with Candida albicans [11], above 100 µg/mL; with Staphylococcus aureus [14] it was 100 µg/mL (≈ 323 µM). The DIZ entry in the experiment on Staphylococcus aureus [6] is “inactive”.

On to `N#Cc1ccc(Cn2cc(C(=O)NN)c(=O)c3ccc(C(F)(F)F)cc32)cc1`, for which the outcome in the experiment with Penicillium chrysogenum was inactive. Also, the zone of inhibition at 100 µg/mL (in experiment [1]; with Pseudomonas aeruginosa [10]) was 8 mm in each case. In addition, the “diameter of the inhibition zone (DIZ)” value in the experiment with Candida albicans [2], in the experiment with Salmonella typhimurium [9], in the experiment on Staphylococcus aureus [12], with Salmonella typhimurium [13] and with Candida albicans [15] was “inactive” in each case. Also, the zone of inhibition at 50 µg/mL (in the experiment on Pseudomonas aeruginosa [3]; in experiment [4]) was 8 mm throughout. In addition, the MIC was 25 µg/mL (≈ 64.7 µM) in the experiment on Pseudomonas aeruginosa [5]; 25 µg/mL (≈ 64.7 µM) in [7]; above 100 µg/mL with Salmonella typhimurium [8]; above 100 µg/mL against Candida albicans [11]; above 100 µg/mL in the experiment with Staphylococcus aureus [14]. In addition, the DIZ result with Staphylococcus aureus [6] is “inactive”.
